Where two headings read alike, the source gives them in different places.
How the values were obtained:
Assay in all cases: Post-emergence efficacy, Method A
Type in all cases: in vivo
[1] = test system: Amaranthus palmeri (AMAPA); conditions: evaluated after 13 days; for pest or weed control at 500 g/ha: Amaranthus palmeri, post-emergence, 312 h
Outline: (§1)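 Visual damage score, 0 (no damage) to 100 (total), taken 13 d after spraying. Pot-grown plants at 14 d post-sowing received an aqueous spray from a 50 g/l acetone/IF50 solution diluted in 0.25% or 1% Empicol ESC70 + 1% ammonium sulphate; glasshouse 24/16 °C, 14 h light, 65% RH, watered twice daily.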

[2] = test system: Chenopodium album (CHEAL); conditions: evaluated after 13 days; for pest or weed control at 500 g/ha: Chenopodium album, post-emergence, 312 h
Outline: as §1

[3] = test system: Digitaria sanguinalis (DIGSA); conditions: evaluated after 13 days; for pest or weed control at 500 g/ha: Digitaria sanguinalis, post-emergence, 312 h
Outline: as §1

[4] = test system: Echinochloa crus-galli (ECHCG); conditions: evaluated after 13 days; for pest or weed control at 500 g/ha: Echinochloa crus-galli, post-emergence, 312 h
Outline: as §1

Eleusine indica (ELEIN) = conditions: evaluated after 13 days; for pest or weed control at 500 g/ha: Eleusine indica, post-emergence, 312 h
Outline: as §1

[5] = test system: Euphorbia heterophylla (EPHHL); conditions: evaluated after 13 days; for pest or weed control at 500 g/ha: Euphorbia heterophylla, post-emergence, 312 h
Outline: as §1

[6] = test system: Ipomoea hederacea (IPOHE); conditions: evaluated after 13 days; for pest or weed control at 500 g/ha: Ipomoea hederacea, post-emergence, 312 h
Outline: as §1

Lolium perenne (LOLPE) = conditions: evaluated after 13 days; for pest or weed control at 500 g/ha: Lolium perenne, post-emergence, 312 h
Outline: as §1

Setaria faberi (SETFA) = conditions: evaluated after 13 days; for pest or weed control at 500 g/ha: Setaria faberi, post-emergence, 312 h
Outline: as §1

[7] = Application rate 500 g/Ha, 100=total damage to plant, 0=no damage to plant, read-out: Control of weed species after post-emergence application, AMAPA
[8] = Application rate 500 g/Ha, 100=total damage to plant, 0=no damage to plant, read-out: Control of weed species after post-emergence application, CHEAL
[9] = Application rate 500 g/Ha, 100=total damage to plant, 0=no damage to plant, read-out: Control of weed species after post-emergence application, DIGSA
[10] = Application rate 500 g/Ha, 100=total damage to plant, 0=no damage to plant, read-out: Control of weed species after post-emergence application, ECHCG
[11] = Application rate 500 g/Ha, 100=total damage to plant, 0=no damage to plant, read-out: Control of weed species after post-emergence application, ELEIN
[12] = Application rate 500 g/Ha, 100=total damage to plant, 0=no damage to plant, read-out: Control of weed species after post-emergence application, EPHHL
[13] = Application rate 500 g/Ha, 100=total damage to plant, 0=no damage to plant, read-out: Control of weed species after post-emergence application, IPOHE
[14] = Application rate 500 g/Ha, 100=total damage to plant, 0=no damage to plant, read-out: Control of weed species after post-emergence application, LOLPE
[15] = Application rate 500 g/Ha, 100=total damage to plant, 0=no damage to plant, read-out: Control of weed species after post-emergence application, SETFA
[16] = Application Rate 500 g/Ha, Method A, read-out: Control of weed species after post-emergence application, AMAPA (100=total damage to plant; 0=no damage to plant)
[17] = Application Rate 500 g/Ha, Method A, read-out: Control of weed species after post-emergence application, CHEAL (100=total damage to plant; 0=no damage to plant)
[18] = Application Rate 500 g/Ha, Method A, read-out: Control of weed species after post-emergence application, DIGSA (100=total damage to plant; 0=no damage to plant)
[19] = Application Rate 500 g/Ha, Method A, read-out: Control of weed species after post-emergence application, ECHCG (100=total damage to plant; 0=no damage to plant)
[20] = Application Rate 500 g/Ha, Method A, read-out: Control of weed species after post-emergence application, ELEIN (100=total damage to plant; 0=no damage to plant)
[21] = Application Rate 500 g/Ha, Method A, read-out: Control of weed species after post-emergence application, EPHHL (100=total damage to plant; 0=no damage to plant)
[22] = Application Rate 500 g/Ha, Method A, read-out: Control of weed species after post-emergence application, IPOHE (100=total damage to plant; 0=no damage to plant)
[23] = Application Rate 500 g/Ha, Method A, read-out: Control of weed species after post-emergence application, LOLPE (100=total damage to plant; 0=no damage to plant)
[24] = Application Rate 500 g/Ha, Method A, read-out: Control of weed species after post-emergence application, SETFA (100=total damage to plant; 0=no damage to plant)
[25] = Application rate 500 g/Ha, 100=total damage to plant, 0=no damage to plant

| SMILES | pest or weed control at 500 g/ha [1, 7] [%] | pest or weed control at 500 g/ha [2, 8] [%] | pest or weed control at 500 g/ha [3, 9] [%] | pest or weed control at 500 g/ha [4, 10] [%] | pest or weed control at 500 g/ha (Eleusine indica (ELEIN); [11]) [%] | pest or weed control at 500 g/ha [5, 12] [%] | pest or weed control at 500 g/ha [6, 13] [%] | pest or weed control at 500 g/ha (Lolium perenne (LOLPE); [14]) [%] | pest or weed control at 500 g/ha (Setaria faberi (SETFA); [15]) [%] | other results |
| --- | --- | --- | --- | --- | --- | --- | --- | --- | --- | --- |
| Cc1n[n+](CCC(=O)O)ccc1-c1ccccn1 [Compound A145] | 10 | 10 | 10 | 0 | 0 | 10 | 10 | 0 | 0 |  |
| COc1cc(C)nc(-c2cc[n+](CCC(=O)[O-])nc2)n1 [Compound A105] | 90 | 20 | 60 | 40 | 20 | 50 | 0 | 50 | 90 |  |
| CC(C)(C[n+]1ccc(-c2ncccn2)cn1)S(=O)(=O)[O-] [Compound A114, 2-methyl-1-(4-pyrimidin-2-ylpyridazin-1-ium-1-yl)propane-2-sulfonate] | 100 | 60 | 80 | 60 | 90 | 80 | 60 | 70 | 40 |  |
| O=S(=O)([O-])CC[n+]1ccc(-c2ncccc2F)cn1 [Compound A68] | 60 | 70 | 40 | 70 | 70 | 100 | 50 | 60 | 60 |  |
| CN(C)S(=O)(=O)[N-]C(=O)C[n+]1ccc(-c2ncccn2)cn1 [Compound A214, dimethylsulfamoyl-[2-(4-pyrimidin-2-ylpyridazin-1-ium-1-yl)acetyl]azanide] |  |  |  |  |  |  |  |  |  | pest or weed control at 500 g/ha [1, 16]: 100%; pest or weed control at 500 g/ha [2, 17]: 100%; pest or weed control at 500 g/ha [3, 18]: 100%; pest or weed control at 500 g/ha [4, 19]: 100%; pest or weed control at 500 g/ha (Eleusine indica (ELEIN); [20]): 100%; pest or weed control at 500 g/ha [5, 21]: 100%; pest or weed control at 500 g/ha [6, 22]: 40%; pest or weed control at 500 g/ha (Lolium perenne (LOLPE); [23]): 80%; pest or weed control at 500 g/ha (Setaria faberi (SETFA); [24]): 90% |
| Cc1n[n+](CCC(=O)O)ccc1-c1ncccn1.[Cl-] [Compound A133] |  |  |  |  |  |  |  |  |  | Control of weed species after post-emergence application, AMAPA [1, 25]: 60; Control of weed species after post-emergence application, CHEAL [2, 25]: 40; Control of weed species after post-emergence application, DIGSA [3, 25]: 70; Control of weed species after post-emergence application, ECHCG [4, 25]: 70; Control of weed species after post-emergence application, ELEIN (Eleusine indica (ELEIN); [25]): 90; Control of weed species after post-emergence application, EPHHL [5, 25]: 20; Control of weed species after post-emergence application, IPOHE [6, 25]: 20; Control of weed species after post-emergence application, LOLPE (Lolium perenne (LOLPE); [25]): 40; Control of weed species after post-emergence application, SETFA (Setaria faberi (SETFA); [25]): 90 |
| N[C@@H](CC[n+]1ccc(-c2ncccn2)cn1)C(=O)O [Compound A201, [(1S)-1-carboxy-3-(4-pyrimidin-2-ylpyridazin-1-ium-1-yl)propyl]ammonium 2,2,2-trifluoroacetate] |  |  |  |  |  |  |  |  |  | pest or weed control at 500 g/ha [1, 16]: 100%; pest or weed control at 500 g/ha [2, 17]: 100%; pest or weed control at 500 g/ha [3, 18]: 80%; pest or weed control at 500 g/ha [4, 19]: 70%; pest or weed control at 500 g/ha (Eleusine indica (ELEIN); [20]): 100%; pest or weed control at 500 g/ha [5, 21]: 90%; pest or weed control at 500 g/ha [6, 22]: 40%; pest or weed control at 500 g/ha (Lolium perenne (LOLPE); [23]): 30%; pest or weed control at 500 g/ha (Setaria faberi (SETFA); [24]): 80% |
| CS(=O)(=O)NC(=O)CC[n+]1ccc(-c2ncccn2)cn1 [Compound A89] | 100 | 40 | 50 | 60 | 40 | 100 | 70 | 40 | 70 |  |
| Cc1nc(-c2cc[n+](CCC(=O)[O-])nc2)ncc1Cl [Compound A100] | 60 | 60 | 40 | 70 | 60 | 90 | 20 | 10 | 20 |  |
| O=c1cc(-c2cc[n+](CCCS(=O)(=O)[O-])nc2)nc[nH]1 [Compound A116] | 100 | 80 | 30 | 20 | 20 | 50 | 10 | 10 | 30 |  |
| O=C(O)CC[n+]1ccc(-c2cc(C(F)(F)F)ncn2)cn1 [Compound A119] | 100 | 100 | 40 | 30 | 30 | 70 | 50 | 30 | 40 |  |
| Cc1cccnc1-c1cc[n+](CCS(=O)(=O)[O-])nc1 [Compound A66] | 40 | 20 | 30 | 50 | 40 | 50 | 40 | 50 | 60 |  |
| CC(CC(=O)O)[n+]1ccc(-c2ccncn2)cn1 (stereo not drawn) [Compound A172] |  |  |  |  |  |  |  |  |  | pest or weed control at 500 g/ha [1, 16]: 30%; pest or weed control at 500 g/ha [2, 17]: 60%; pest or weed control at 500 g/ha [3, 18]: 80%; pest or weed control at 500 g/ha [4, 19]: 50%; pest or weed control at 500 g/ha (Eleusine indica (ELEIN); [20]): 70%; pest or weed control at 500 g/ha [5, 21]: 50%; pest or weed control at 500 g/ha [6, 22]: 40%; pest or weed control at 500 g/ha (Lolium perenne (LOLPE); [23]): 20%; pest or weed control at 500 g/ha (Setaria faberi (SETFA); [24]): 50% |
| O=S(=O)(O)CC[n+]1ccc(-c2ccncc2F)cn1 [Compound A159] |  |  |  |  |  |  |  |  |  | pest or weed control at 500 g/ha [1, 16]: 100%; pest or weed control at 500 g/ha [2, 17]: 100%; pest or weed control at 500 g/ha [3, 18]: 30%; pest or weed control at 500 g/ha [4, 19]: 70%; pest or weed control at 500 g/ha (Eleusine indica (ELEIN); [20]): 50%; pest or weed control at 500 g/ha [5, 21]: 80%; pest or weed control at 500 g/ha [6, 22]: 50%; pest or weed control at 500 g/ha (Lolium perenne (LOLPE); [23]): 40%; pest or weed control at 500 g/ha (Setaria faberi (SETFA); [24]): 60% |
| COc1cnc(-c2cc[n+](CCCS(=O)(=O)[O-])nc2)cn1 [Compound A78] | 0 | 10 | 40 | 30 | 30 | 20 | 20 | 20 | 40 |  |
